Patent publication US10413581B2, “Combination, composition, and method of administering the combination or composition to animals” (Phibro Animal Health Corporation, priority 2014, dated 2019)

What was measured:
[1] = system: E. meleagrimitis; test: Example 10: oocysts per gram fecal material, E. meleagrimitis; assay type: in vivo; details: Composition 250 ppm, Monensin 68 ppm, alone or combined
Procedure: (§1) In this examples the effect of a composition comprising Quillaja saponaria and Yucca schidigera in combination with Monensin was determined. In some embodiments, the composition was a commercial product sold under the trade name MAGNI-PHI by Phibro Animal Health Corporation. Four treatment regimens were used: a control with no medication; 250 ppm of the composition; 68 ppm Monensin; and 250 ppm composition in combination with 68 ppm Monensin.
(§2) On Days 14, 21, and 28 fresh fecal samples were collected from each pen. These representative samples were tested to determine the degree of coccidia oocysts per gram of litter, by determining oocysts shedding/cycling. Oocysts per gram were determined for each sample.

[2] = system: E. gallopavonis; test: Example 10: oocysts per gram fecal material, E. gallopavonis; assay type: in vivo; details: Composition 250 ppm, Monensin 68 ppm, alone or combined
Procedure: as §1, §2

[3] = system: E. adenoeides; test: Example 10: oocysts per gram fecal material, E. adenoeides; assay type: in vivo; details: Composition 250 ppm, Monensin 68 ppm, alone or combined
Procedure: as §1, §2

[4] = system: coccidia; test: Example 10: composition in combination with Monensin: performance, total coccidia oocysts per gram; assay type: in vivo; details: Composition 250 ppm, Monensin 68 ppm, alone or combined; for Adj. FCR / Feed Intake / Wt. Gain: D 0-42
Procedure: as §1, §2

[5] = system: E. tenella; test: Example 8: lesion score and OPG, E. tenella; assay type: in vivo, Cobb 500 male chicks; details: Composition 250 ppm, Salinomycin 66 ppm, alone or combined
Description: (§3) On Days 18, 28, and 35, three birds per pen were sacrificed and coccidial lesion scored for degree of E. acervulina, E. maxima and E. tenella infection (Examples 6 and 7). The system of Johnson and Reid (1970) wherein 0 is normal and 1, 2, 3, or 4 indicate increasing severity of infection were used for lesion scoring. In Example 8, three birds per pen were sacrificed on days […] and coccidial lesion scored for degree of E. acervulina, E. maxima and E. tenella infection. The system of Johnson and Reid (1970) wherein 0 is normal and 1, 2, 3, or 4 indicate increasing severity of infection were used for lesion scoring.
(§4) On Days 18 and 28 fresh fecal samples were collected from each pen (Examples 6 and 7). On Days 18 and 28, fresh fecal samples were collected from each pen (Example 8). These representative samples were tested to determine the degree of oocysts shedding/cycling. Oocysts per gram were determined for each sample.
(§5) In this example, the ability of exemplary compositions to improve bird performance under challenge conditions was determined. In some embodiments, an exemplary composition was administered alone and in other embodiments, it was administered in combination with Salinomycin. In some embodiments, the birds were not fed any additives (that is, neither the composition nor Salinomycin) and in other embodiments the birds were solely fed Salinomycin. The birds used in this example were exposed to ionophore tolerant coccidia in the litter of all pens, beginning from day of age. […] The results from this example further illustrate that the disclosed compositions and combinations are effective to better control coccidia that are partially resistant to ionophores.

[6] = system: E. tenella; test: Example 5: birds infected with E. tenella field isolate; performance, lesion score, OPG; assay type: in vivo
Description: In another test embodiment, the effects of lower amounts of NFP (e.g., 100 ppm, 125 ppm, and 150 ppm) on birds infected with E. tenella, a species of Eimeria that causes hemorrhagic cecal coccidiosis in poultry, particularly young poultry. Infected birds were infected with 100,000 oocysts of field isolate of E. tenella. The infected birds were subjected to the treatments described below in entries 2-6 of Table 4.

[7] = system: E. maxima; test: Example 5: birds infected with E. maxima field isolate; performance, lesion score, OPG; assay type: in vivo
Description: Similar protocols were used to determine the effects of lower amounts of NFP (e.g., 100 ppm, 125 ppm, and 150 ppm) on birds infected with E. maxima, a common form of Eimeria found in commercial broilers. Infected birds were infected with 37,500 oocysts of field isolate of E. maxima. The infected birds were subjected to the treatments described below in entries 2-6 of Table 3.

[8] = system: coccidia; test: Example 4: compatibility of the composition with Salinomycin; feed conversion, weight gain, oocysts, coccidial challenge; assay type: in vivo, broilers; details: between days 21 and 28; composition 250 ppm, Salinomycin 66 ppm
Procedure: In this particular embodiment, the compatibility of the Yucca schidigera and Quillaja saponaria composition with Salinomycin was evaluated. The treatments included embodiments where no feed additive was provided (e.g., none of the composition added), where 250 ppm of the composition was provided, where 66 ppm of Salinomycin was provided, and embodiments where 250 ppm of the composition and 66 ppm of Salinomycin were provided in combination. The anticoccidial effects and immune potentiation of each test embodiment were evaluated and the results are provided graphically in FIGS. 20-26.
A challenge study was also conducted to evaluate the potential for immune potentiation. Similar to the challenge study described in Example 3, 5 birds were removed from each pen after 21 days. These birds were challenged with a three-species coccidial challenge and then placed in batter cages for seven days. On day 28, the birds were killed and lesion scored.

[9] = system: E. maxima; test: Example 8: lesion score and OPG, E. maxima; assay type: in vivo, Cobb 500 male chicks; details: Composition 250 ppm, Salinomycin 66 ppm, alone or combined
Description: as §3, §4, §5

[10] = system: ionophore tolerant coccidia; test: Example 8 floor pen study, ionophore tolerant coccidia in the litter: performance, mortality, total lesion score, total OPG; assay type: in vivo, Cobb 500 male chicks
Description: In the embodiments described below in Examples 6-8, the following conditions and methods were utilized. The test house was divided into pens of equal size, arranged along a central aisle. Subtracting out for equipment, the initial bird density was ˜0.84 square ft/bird. Each pen had 5 feet high side walls with bottom 1½ feet being of solid wood to prevent bird migration. All flooring of each pen had approximately 4 inches of built-up litter.
The temperature of the building was monitored. Environmental conditions during the trial (temperature) were appropriate (optimum) to the age of the animals Illumination was provided by fluorescent bulbs placed above the pens. The lighting scheme was 24 hours of light per day.
The diets were provided ad libitum in one tube-type feeder per pen. From day 1 until day 7, feed will also be supplied on a tray placed directly on the litter of each pen.
Standard floor pen management practices were used throughout the experiment. Animals and housing facilities were inspected twice daily, observing and recording the general health status, constant feed and water supply as well as temperature, removing all dead birds, and recognizing unexpected events.
All feeds were fed as crumbles/pellets. Quantities of all basal feed and test articles used to prepare treatment batches were documented. Each batch of feed was mixed and bagged separately. Each bag was identified with the study number, date of mix, type of feed, and the correct treatment number. Complete records of feed mixing, and test article inventories were maintained. A sample from the beginning, middle, and end of each treatment feed were mixed to form a composite sample. This sample of each treatment was retained until study end. All feed was weighed by pen. Starter feed was fed from Day 0 to 18. On Day 18, non-consumed starter was weighed and discarded. Grower feed was issued and fed until Day 28. On Day 28, non-consumed grower was weighed and discarded. Finisher feed was issued and fed until Day 42. On Day 42, non-consumed finisher was weighed and discarded.
Day of hatch male chicks were obtained from Cobb-Vantress hatchery, Cleveland, Ga. The strain was Cobb 500. Breeder flock was recorded. 1760 chicks were allocated to the study. At the hatchery, the birds received routine vaccinations. The birds were sexed at the hatchery. In Example 7, all chicks were spray vaccinated with conventional doses of Coccivac-B. Only healthy appearing chicks were used in the study. In examples 6 and 7, fifty-five males were allocated to each treatment pen by blocks. In example 8, fifty-two males were allocated to each treatment pen by blocks. No birds were replaced during the course of the study. Number and disposition of all birds not used for allocation were documented. Bird weights (kg) by pen were recorded at study initiation, Day 18, 28, and termination (Day 42).
as §3
On Days 18 and 28 fresh fecal samples were collected from each pen (Examples 6 and 7). […] These representative samples were tested to determine the degree of oocysts shedding/cycling. Oocysts per gram were determined for each sample.
In this example, the ability of exemplary compositions to improve bird performance under challenge conditions was determined. […]

[11] = system: E. acervulina; test: Example 8: lesion score and OPG, E. acervulina; assay type: in vivo, Cobb 500 male chicks; details: Composition 250 ppm, Salinomycin 66 ppm, alone or combined
Description: as §3, §4, §5

[12] = system: E. acervulina; test: Example 5: birds infected with E. acervulina field isolate; performance, lesion score, OPG; assay type: in vivo
Procedure: In this particular embodiment, the effects of the composition and Salinomycin, independently, were evaluated. Lower amounts of the composition were tested, including the amount that is typically used by those in the art (i.e., 125 ppm). Salinomycin treatments used 44 ppm or 66 ppm Salinomycin. Non-infected birds that received no medication were used as a control (entry 1 of Table 2, below). Also, some birds were administered 66 ppm of Salinomycin, but where not infected (entry 7 of Table 2, below). The remaining birds were infected with 200,000 oocysts of field isolate of E. acervulina, which is a species of Eimeria that causes coccidiosis in poultry, particularly […] poultry, and subjected to the treatments described below in entries 2-6 of Table 2.

[13] = system: coccidial contaminated litter; test: Example 2: live performance of male broiler chickens, coccidial contaminated litter added to pens; assay type: in vivo; details: 22 ppm Virginiamycin, throughout the test
Procedure: In this example, the live performance of male broiler chickens during a standard diet program with and without an embodiment of the disclosed combination was determined. In this embodiment, the combination comprised Virginiamycin and different levels of the composition, particularly 0 ppm, 150 ppm, 200 ppm, and 250 ppm, and further comprising Avatec 90. A disease challenge was presented in each pen by adding coccidial contaminated litter to the pen.

[14] = 44 ppm, birds infected with 100,000 oocysts of E. tenella
[15] = 66 ppm, entry 7 of Table 4 (entries 2-6 infected)
[16] = 44 ppm, birds infected with 37,500 oocysts of E. maxima
[17] = 66 ppm, entry 7 of Table 3 (entries 2-6 infected)
[18] = Day 18, Composition 250 ppm, Salinomycin 66 ppm, alone or combined
[19] = Day 28, Composition 250 ppm, Salinomycin 66 ppm, alone or combined
[20] = Day 42, Composition 250 ppm, Salinomycin 66 ppm, alone or combined
[21] = 44 ppm, birds infected with 200,000 oocysts of E. acervulina
[22] = 66 ppm, entry 7 of Table 2 (not infected)

## CC[C@@]1([C@@H]2O[C@@H]([C@H]3O[C@@](O)(CO)[C@H](C)C[C@@H]3C)C[C@@H]2C)CC[C@H]([C@]2(C)CC[C@]3(C[C@H](O)[C@@H](C)[C@@H]([C@@H](C)[C@@H](OC)[C@H](C)C(=O)O)O3)O2)O1 [Monensin]
[1]; D 14
  Oocysts per gram fecal material E. mel.: 786b oocysts per gram
[1]; D 21
  Oocysts per gram fecal material E. mel.: 2549c oocysts per gram
[1]; D 28
  Oocysts per gram fecal material E. mel.: 74b oocysts per gram
[2]; D 14
  Oocysts per gram fecal material E. gallo.: 430ab oocysts per gram
[2]; D 21
  Oocysts per gram fecal material E. gallo.: 623a oocysts per gram
[2]; D 28
  Oocysts per gram fecal material E. gallo.: 119a oocysts per gram
[3]; D 14
  Oocysts per gram fecal material E. aden.: 356ab oocysts per gram
[3]; D 21
  Oocysts per gram fecal material E. aden.: 237bc oocysts per gram
[3]; D 28
  Oocysts per gram fecal material E. aden.: 29b oocysts per gram
[4]; D 14
  Oocysts per gram fecal material Total: 1571bc oocysts per gram
[4]; D 21
  Oocysts per gram fecal material Total: 3409c oocysts per gram
[4]; D 28
  Oocysts per gram fecal material Total: 252b oocysts per gram
[4]; Day 14
  Adj. FCR: 1.473b
  Feed Intake: 20.04b
  Wt. Gain: 0.261a kg
[4]; Day 28
  Adj. FCR: 1.562b
  Feed Intake: 51.81a
  Wt. Gain: 0.703a kg
[4]; Day 42
  Adj. FCR: 1.707b
  Feed Intake: 124.77b
  Wt. Gain: 1.614bc kg

## CC[C@@H](C(=O)[C@@H](C)[C@@H](O)[C@H](C)[C@@H]1O[C@@H]([C@@H](CC)C(=O)O)CC[C@@H]1C)[C@H]1O[C@]2(C=C[C@@H](O)[C@]3(CC[C@@](C)([C@H]4CC[C@](O)(CC)[C@H](C)O4)O3)O2)[C@H](C)C[C@@H]1C [Salinomycin]
[5]; Day 18
  Lesion Scores E.T.: 0.5b
[5]; Day 21
  OPG E.T.: 5528a oocysts per gram
[5]; Day 28
  Lesion Scores E.T.: 0.1b
  OPG E.T.: 3065ab oocysts per gram
[6]; [14]
  Adj. Fd. Conv.: 1.929 ab
  Avg. Wt. Gain: 0.242 ab
  Feed Consum.: 2.787 a
  Lesion Score: 0.8 c
  OPG: 800 oocysts per gram of fecal material
[6]; [15]
  Adj. Fd. Conv.: 1.863 bc
  Avg. Wt. Gain: 0.245 ab
  Feed Consum.: 2.671 a
  Lesion Score: 0.6 c
  OPG: 150 oocysts per gram of fecal material
[7]; [16]
  Adj. Fd. Conv.: 2.021 b
  Avg. Wt. Gain: 0.225 b
  Feed Consum.: 2.718 ab
  Lesion Score: 1.3 cd
  OPG: 4435 oocysts per gram of fecal material
[7]; [17]
  Adj. Fd. Conv.: 1.960 b
  Avg. Wt. Gain: 0.230 b
  Feed Consum.: 2.647 bc
  Lesion Score: 1.2 days
  OPG: 167 oocysts per gram of fecal material
[8]
  susceptibility of broilers to coccidial challenge: increased the susceptibility
[9]; Day 18
  Lesion Scores E.M.: 0.7a
[9]; Day 21
  OPG E.M.: 1910bc oocysts per gram
[9]; Day 28
  Lesion Scores E.M.: 0.5b
  OPG E.M.: 955b oocysts per gram
[10]; [18]
  Adj. FCR: 1.420ab
  Feed Intake: 24.76a
  Lesion Scores Total: 0.8b
  Wt. Gain: 0.294a kg
[10]; Day 21, Composition 250 ppm, Salinomycin 66 ppm, alone or combined
  OPG Total: 10352b oocysts per gram
[10]; [19]
  Adj. FCR: 1.619b
  Feed Intake: 74.09a
  Lesion Scores Total: 0.6b
  OPG Total: 7839b oocysts per gram
  Wt. Gain: 0.875a kg
[10]; [20]
  Adj. FCR: 1.773bc
  Feed Intake: 175.68a
  Mortality: 6.5a
  Wt. Gain: 2.114a kg
[10]; day 18, Salinomycin alone
  performance: did not improve performance
[11]; Day 18
  Lesion Scores E.A.: 1.3a
[11]; Day 21
  OPG E.A.: 2915bc oocysts per gram
[11]; Day 28
  Lesion Scores E.A.: 1.2ab
  OPG E.A.: 3819b oocysts per gram
[12]; [21]
  Adj. Fd. Conv.: 1.946 b
  Avg. Wt. Gain: 0.241 ab
  Feed Consum.: 2.804 a
  Lesion Score: 1.3 c
  OPG: 2734 oocysts per gram of fecal material
[12]; [22]
  Adj. Fd. Conv.: 1.948 b
  Avg. Wt. Gain: 0.231 b
  Feed Consum.: 2.692 ab
  Lesion Score: 1.4 c
  OPG: 217 oocysts per gram of fecal material

## Virginiamycin
[13]
  feed conversion rates: improved feed conversion rates
